Like-named read-outs stand apart in the source and are kept apart here.
Legend:
Assay type in all cases: cell-based
hα2hβ2wt-nAChR = hα2hβ2wt-nAChR (Homo sapiens, UniProt P17787+Q15822); details: 316 μM ACh or 100 μM nicotine
human α2β2-nAChR [1] = molecular target: T1, human α2β2-nAChR (Homo sapiens, UniProt P17787+Q15822); details: for Peak current: hα2hβ2opt, 316 μM ACh or 100 μM nicotine; for Higher agonist sensitivity of 1:10 (HS) than 1:1 receptors: α2:β2 1:10 vs 1:1 cRNA; for Higher agonist sensitivity of 1:10 (HS) than 1:1 receptors / Higher agonist sensitivity of 1:10 (HS) than 10:1 (LS) receptors: range printed for ACh or nicotine together; for Lower Imax of 1:10 (HS) than 1:1 or 10:1 receptors: α2:β2 1:10 vs 1:1 or 10:1 cRNA; for Higher agonist sensitivity of 1:10 (HS) than 10:1 (LS) receptors: α2:β2 1:10 vs 10:1 cRNA; for Lower Imax of 10:1 than 1:1 receptors / Lower agonist sensitivity of 10:1 than 1:1 receptors: α2:β2 10:1 vs 1:1 cRNA; for Peak response Imax (Mean±SE): at the Imax concentration of the agonist; for EC50: Potency EC50 (95% CI), −70 mV
T1 sequence (Q15822 27-529): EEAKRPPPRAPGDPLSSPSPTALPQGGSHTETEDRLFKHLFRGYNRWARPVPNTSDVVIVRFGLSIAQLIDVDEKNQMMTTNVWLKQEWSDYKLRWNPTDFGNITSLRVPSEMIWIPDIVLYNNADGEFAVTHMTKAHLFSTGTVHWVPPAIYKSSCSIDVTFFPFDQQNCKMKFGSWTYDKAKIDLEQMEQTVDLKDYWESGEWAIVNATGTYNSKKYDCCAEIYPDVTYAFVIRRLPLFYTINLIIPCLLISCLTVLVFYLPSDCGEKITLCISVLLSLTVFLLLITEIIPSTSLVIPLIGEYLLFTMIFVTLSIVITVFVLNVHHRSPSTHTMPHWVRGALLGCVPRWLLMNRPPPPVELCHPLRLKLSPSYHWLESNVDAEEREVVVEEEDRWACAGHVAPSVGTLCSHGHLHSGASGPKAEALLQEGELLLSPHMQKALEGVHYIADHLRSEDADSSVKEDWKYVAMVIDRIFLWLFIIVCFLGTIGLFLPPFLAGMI
T1 sequence (P17787 26-502): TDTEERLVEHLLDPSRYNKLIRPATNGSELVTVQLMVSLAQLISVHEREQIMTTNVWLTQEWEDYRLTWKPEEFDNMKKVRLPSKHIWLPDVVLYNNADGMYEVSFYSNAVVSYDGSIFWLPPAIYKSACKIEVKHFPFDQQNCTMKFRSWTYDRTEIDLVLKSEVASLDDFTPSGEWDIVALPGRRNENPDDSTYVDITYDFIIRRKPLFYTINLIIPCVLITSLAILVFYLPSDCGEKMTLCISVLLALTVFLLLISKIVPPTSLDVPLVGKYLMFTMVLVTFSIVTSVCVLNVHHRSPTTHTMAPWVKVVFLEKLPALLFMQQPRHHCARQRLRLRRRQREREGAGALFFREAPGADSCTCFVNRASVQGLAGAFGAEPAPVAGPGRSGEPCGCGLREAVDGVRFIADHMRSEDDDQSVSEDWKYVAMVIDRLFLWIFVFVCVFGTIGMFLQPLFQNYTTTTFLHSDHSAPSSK

human α2(T22I)β2-nAChR [2] = molecular target: T2, human α2(T22I)β2-nAChR (Homo sapiens, UniProt P17787+Q15822, T22I); details: for Higher agonist sensitivity of 1:10 (HS) than 1:1 or 10:1 receptors: α2(T22I):β2 1:10 vs 1:1 or 10:1 cRNA; for Lower Imax of 10:1 than 1:1 receptors / Lower agonist sensitivity of 10:1 than 1:1 receptors: α2(T22I):β2 10:1 vs 1:1 cRNA; for Peak response Imax (Mean±SE): at the Imax concentration of the agonist
T2 sequence (Q15822 27-529): as the sequence (Q15822 27-529) above
T2 sequence (P17787 26-502): as the sequence (P17787 26-502) above

human α2(T22I)β4-nAChR [3] = molecular target: T3, human α2(T22I)β4-nAChR (Homo sapiens, UniProt P30926+Q15822, T22I); details: for EC50: Potency EC50 (95% CI), −70 mV; for Peak response Imax (Mean±SE): at the Imax concentration of the agonist
T3 sequence (Q15822 27-529): as the sequence (Q15822 27-529) above
T3 sequence (P30926 22-498): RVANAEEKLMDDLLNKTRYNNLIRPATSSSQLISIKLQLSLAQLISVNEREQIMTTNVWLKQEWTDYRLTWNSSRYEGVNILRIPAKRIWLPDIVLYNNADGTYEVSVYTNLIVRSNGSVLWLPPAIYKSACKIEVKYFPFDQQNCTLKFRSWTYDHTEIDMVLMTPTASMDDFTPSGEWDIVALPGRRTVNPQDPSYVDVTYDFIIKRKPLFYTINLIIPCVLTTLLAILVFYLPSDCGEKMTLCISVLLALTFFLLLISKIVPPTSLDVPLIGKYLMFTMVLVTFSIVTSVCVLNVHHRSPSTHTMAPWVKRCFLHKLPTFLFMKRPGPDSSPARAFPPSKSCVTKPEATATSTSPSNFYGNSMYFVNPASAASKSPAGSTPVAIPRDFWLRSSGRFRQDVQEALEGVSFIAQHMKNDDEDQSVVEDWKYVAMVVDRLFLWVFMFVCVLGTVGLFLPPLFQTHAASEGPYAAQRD

human α2β4-nAChR = human α2β4-nAChR (Homo sapiens, UniProt P30926+Q15822); details: for EC50: Potency EC50 (95% CI), −70 mV; for Peak response Imax (Mean±SE): at the Imax concentration of the agonist
human α2β4-nAChR, sequence (Q15822 27-529): as the sequence (Q15822 27-529) above
human α2β4-nAChR, sequence (P30926 22-498): as the sequence (P30926 22-498) above

human α2β2-nAChR [4] = molecular target: T1, human α2β2-nAChR; assay: Mecamylamine block of agonist-induced Imax responses; details: 1000 μM mecamylamine; α2:β2 1:1, 10:1 or 1:10; data not shown
human α2(T22I)β2-nAChR [5] = molecular target: T2, human α2(T22I)β2-nAChR; assay: as above; details: 1000 μM mecamylamine; α2(T22I):β2 1:1, 10:1 or 1:10; data not shown
human α2(T22I)β4-nAChR [6] = molecular target: T3, human α2(T22I)β4-nAChR; assay: Mecamylamine block of agonist-induced peak currents; details: ACH-2, read-out: Inhibition of ACh-induced peak current responses, 1000 μM mecamylamine; 316 μM ACh; α2(T22I):β4 1:1

hα2hβ2wt-nAChR, sequence (Q15822 27-529): as the sequence (Q15822 27-529) above
hα2hβ2wt-nAChR, sequence (P17787 26-502): as the sequence (P17787 26-502) above

With `CC(=O)OCC[N+](C)(C)C` [ACh, acetylcholine] the Peak current (hα2hβ2wt-nAChR) was 28±6 nA, the Peak current (human α2β2-nAChR [1]) was 406±89 nA and the “Higher agonist sensitivity of 1:10 (HS) than 1:1 receptors” value (human α2β2-nAChR [1]) was 2–3 fold. For the same compound, the “Lower Imax of 1:10 (HS) than 1:1 or 10:1 receptors” value (human α2β2-nAChR [1]) was 47–70%, the “Higher agonist sensitivity of 1:10 (HS) than 10:1 (LS) receptors” value (human α2β2-nAChR [1]) was 8–18 fold and the “Lower Imax of 10:1 than 1:1 receptors” value (human α2β2-nAChR [1]) was ~ 43%. The “Lower agonist sensitivity of 10:1 than 1:1 receptors” value (“Lower agonist sensitivity” below) (human α2β2-nAChR [1]) was ~ 5 fold, the “Hill coefficient nH ± SE” value (human α2β2-nAChR [1]; α2β2(1:1)) was 0.7 ± 0.05 and the “Peak response Imax (Mean±SE)” value (human α2β2-nAChR [1]; α2β2(1:1)) was 551 ± 62 nA. The “Hill coefficient nH ± SE” value (human α2β2-nAChR [1]; α2β2(1:10)) was 1 ± 0.08, the “Peak response Imax (Mean±SE)” value (human α2β2-nAChR [1]; α2β2(1:10)) was 167 ± 18 nA and the “Hill coefficient nH ± SE” value (human α2β2-nAChR [1]; α2β2(10:1)) was 0.9 ± 0.08. The “Peak response Imax (Mean±SE)” value (human α2β2-nAChR [1]; α2β2(10:1)) was 314 ± 84 nA, the “Higher agonist sensitivity of 1:10 (HS) than 1:1 or 10:1 receptors” value (human α2(T22I)β2-nAChR [2]) was 4–9 fold and the “Lower Imax of 10:1 than 1:1 receptors” value (human α2(T22I)β2-nAChR [2]) was ~ 25 fold. For the same compound, the “Lower agonist sensitivity” value (human α2(T22I)β2-nAChR [2]) was ~ 2 fold, the “Hill coefficient nH ± SE” value (human α2(T22I)β2-nAChR [2]; α2(T22I)β2(1:1)) was 0.9 ± 0.08 and the “Peak response Imax (Mean±SE)” value (human α2(T22I)β2-nAChR [2]; α2(T22I)β2(1:1)) was 1326 ± 214 nA. For the same compound, the “Peak response Imax (Mean±SE)” value (human α2(T22I)β2-nAChR [2]; α2(T22I)β2(1:10)) was 952 ± 128 nA, the “Hill coefficient nH ± SE” value (human α2(T22I)β2-nAChR [2]; α2(T22I)β2(10:1)) was 0.9 ± 0.3 and the “Peak response Imax (Mean±SE)” value (human α2(T22I)β2-nAChR [2]; α2(T22I)β2(10:1)) was 54 ± 9 nA.

Compound `CN1CCC[C@H]1c1cccnc1` [Nicotine, L-nicotine] has an EC50 (human α2(T22I)β4-nAChR [3]; α2(T22I)β4(1:1) cRNA ratio) of 12 µM, an EC50 (human α2(T22I)β4-nAChR [3]; α2(T22I)β4(1:10) cRNA ratio, putative HS) of 2.6 µM and an EC50 (human α2(T22I)β4-nAChR [3]; α2(T22I)β4(10:1) cRNA ratio, putative LS) of 14 µM. The “Hill coefficient nH ± SE” value (human α2(T22I)β4-nAChR [3]; α2(T22I)β4(1:1)) was 1.8 ± 0.07, the “Imax Conc. (concentration where Imax is achieved)” value (human α2(T22I)β4-nAChR [3]; α2(T22I)β4(1:1)) was 100 µM and the “Peak response Imax (Mean±SE)” value (human α2(T22I)β4-nAChR [3]; α2(T22I)β4(1:1)) was 1527 ± 245 nA. For the same compound, the “Peak response Imax (Mean±SE)” value (human α2(T22I)β4-nAChR [3]; α2(T22I)β4(1:1), listed as nicotine) was 1527 nA, the “Hill coefficient nH ± SE” value (human α2(T22I)β4-nAChR [3]; α2(T22I)β4(1:10)) was 1.2 ± 0.04 and the “Imax Conc. (concentration where Imax is achieved)” value (human α2(T22I)β4-nAChR [3]; α2(T22I)β4(1:10)) was 100 µM. For the same compound, the “Peak response Imax (Mean±SE)” value (human α2(T22I)β4-nAChR [3]; α2(T22I)β4(1:10)) was 3996 ± 168 nA, the “Hill coefficient nH ± SE” value (human α2(T22I)β4-nAChR [3]; α2(T22I)β4(10:1)) was 2 ± 0.2 and the “Imax Conc. (concentration where Imax is achieved)” value (human α2(T22I)β4-nAChR [3]; α2(T22I)β4(10:1)) was 100 µM. The “Peak response Imax (Mean±SE)” value (human α2(T22I)β4-nAChR [3]; α2(T22I)β4(10:1)) was 402 ± 70 nA, the “Peak current lower than wild-type α2β4” value (human α2(T22I)β4-nAChR [3]; α2(T22I)β4 vs α2β4, 1:1 cRNA (mixture of isoforms)) was ~ 30% and the Peak current (hα2hβ2wt-nAChR) was 24±5 nA. The EC50 (human α2β4-nAChR; α2β4(1:1) cRNA ratio) was 4.7 µM, the EC50 (human α2β4-nAChR; α2β4(1:10) cRNA ratio, putative HS) was 3.8 µM and the EC50 (human α2β4-nAChR; α2β4(10:1) cRNA ratio, putative LS) was 11 µM. The “Hill coefficient nH ± SE” value (human α2β4-nAChR; α2β4(1:1)) was 1.1 ± 0.1, the “Imax Conc. (concentration where Imax is achieved)” value (human α2β4-nAChR; α2β4(1:1)) was 100 µM and the “Peak response Imax (Mean±SE)” value (human α2β4-nAChR; α2β4(1:1)) was 2088 ± 96 nA. For the same compound, the “Peak response Imax (Mean±SE)” value (human α2β4-nAChR; α2β4(1:1), listed as nicotine) was 2088 nA, the “Hill coefficient nH ± SE” value (human α2β4-nAChR; α2β4(1:10)) was 1.3 ± 0.08 and the “Imax Conc. (concentration where Imax is achieved)” value (human α2β4-nAChR; α2β4(1:10)) was 100 µM. The “Peak response Imax (Mean±SE)” value (human α2β4-nAChR; α2β4(1:10)) was 1814 ± 155 nA, the “Hill coefficient nH ± SE” value (human α2β4-nAChR; α2β4(10:1)) was 1.6 ± 0.09 and the “Imax Conc. (concentration where Imax is achieved)” value (human α2β4-nAChR; α2β4(10:1)) was 100 µM. The “Peak response Imax (Mean±SE)” value (human α2β4-nAChR; α2β4(10:1)) was 1139 ± 93 nA, the EC50 (human α2β2-nAChR [1]; α2β2(1:1) cRNA ratio) was 1.8 µM and the EC50 (human α2β2-nAChR [1]; α2β2(1:10) cRNA ratio, putative HS) was 0.83 µM. The EC50 (human α2β2-nAChR [1]; α2β2(10:1) cRNA ratio, putative LS) was 6.3 µM, the Peak current (human α2β2-nAChR [1]) was 291±55 nA and the “Higher agonist sensitivity of 1:10 (HS) than 1:1 receptors” value (human α2β2-nAChR [1]) was 2–3 fold. The “Lower Imax of 1:10 (HS) than 1:1 or 10:1 receptors” value (human α2β2-nAChR [1]) was 72–82%, the “Higher agonist sensitivity of 1:10 (HS) than 10:1 (LS) receptors” value (human α2β2-nAChR [1]) was 8–18 fold and the “Lower Imax of 10:1 than 1:1 receptors” value (human α2β2-nAChR [1]) was ~ 36%. The “Lower agonist sensitivity” value (human α2β2-nAChR [1]) was ~ 3.5 fold, the “Hill coefficient nH ± SE” value (human α2β2-nAChR [1]; α2β2(1:1)) was 0.8 ± 0.08 and the “Imax Conc. (concentration where Imax is achieved)” value (human α2β2-nAChR [1]; α2β2(1:1)) was 100 µM. The “Peak response Imax (Mean±SE)” value (human α2β2-nAChR [1]; α2β2(1:1)) was 373 ± 33 nA, the “Hill coefficient nH ± SE” value (human α2β2-nAChR [1]; α2β2(1:10)) was 1.1 ± 0.13 and the “Imax Conc. (concentration where Imax is achieved)” value (human α2β2-nAChR [1]; α2β2(1:10)) was 31.6 µM. For the same compound, the “Peak response Imax (Mean±SE)” value (human α2β2-nAChR [1]; α2β2(1:10)) was 68 ± 7.8 nA, the “Hill coefficient nH ± SE” value (human α2β2-nAChR [1]; α2β2(10:1)) was 1.2 ± 0.06 and the “Imax Conc. (concentration where Imax is achieved)” value (human α2β2-nAChR [1]; α2β2(10:1)) was 100 µM. The “Peak response Imax (Mean±SE)” value (human α2β2-nAChR [1]; α2β2(10:1)) was 239 ± 21 nA, the EC50 (human α2(T22I)β2-nAChR [2]; Potency EC50 (95% CI), α2(T22I)β2(1:1) cRNA ratio, −70 mV) was 6.7 µM and the “Higher agonist sensitivity of 1:10 (HS) than 1:1 or 10:1 receptors” value (human α2(T22I)β2-nAChR [2]) was 3–5 fold. The “Lower Imax of 10:1 than 1:1 receptors” value (human α2(T22I)β2-nAChR [2]) was ~ 23 fold, the “Lower agonist sensitivity” value (human α2(T22I)β2-nAChR [2]) was ~ 2 fold and the “Hill coefficient nH ± SE” value (human α2(T22I)β2-nAChR [2]; α2(T22I)β2(1:1)) was 1.2 ± 0.08. The “Imax Conc. (concentration where Imax is achieved)” value (human α2(T22I)β2-nAChR [2]; α2(T22I)β2(1:1)) was 100 µM, the “Peak response Imax (Mean±SE)” value (human α2(T22I)β2-nAChR [2]; α2(T22I)β2(1:1)) was 1463 ± 136 nA and the “Hill coefficient nH ± SE” value (human α2(T22I)β2-nAChR [2]; α2(T22I)β2(1:10)) was 1 ± 0.07. For the same compound, the “Imax Conc. (concentration where Imax is achieved)” value (human α2(T22I)β2-nAChR [2]; α2(T22I)β2(1:10)) was 31.6 µM, the “Peak response Imax (Mean±SE)” value (human α2(T22I)β2-nAChR [2]; α2(T22I)β2(1:10)) was 1004 ± 91 nA and the “Hill coefficient nH ± SE” value (human α2(T22I)β2-nAChR [2]; α2(T22I)β2(10:1)) was 1.1 ± 0.2. The “Imax Conc. (concentration where Imax is achieved)” value (human α2(T22I)β2-nAChR [2]; α2(T22I)β2(10:1)) was 100 µM and the “Peak response Imax (Mean±SE)” value (human α2(T22I)β2-nAChR [2]; α2(T22I)β2(10:1)) was 62 ± 12 nA.

`CNC1(C)C2CCC(C2)C1(C)C` (centres unmarked) [Mecamylamine, mecamylamine] was tested, and the “Effect on ACh or nicotine induced Imax responses” value (human α2β2-nAChR [4]) was “completely abolished”, the “Effect on ACh or nicotine induced Imax responses” value (human α2(T22I)β2-nAChR [5]) was “completely abolished” and the inhibition at 1000 µM (human α2(T22I)β4-nAChR [6]) was 99%.

Reference: article PMC3984001 (Neuropharmacology, 2014)
